How the values were obtained:
Assay in all cases: Caliper, Mobility shift assay off-chip
[1] = biological target: FGFR4 (human) (UniProt P22455)
[2] = biological target: DCLK2 (human) (UniProt Q8N568)
[3] = biological target: MARK1 (human) (UniProt Q9P0L2)
[4] = biological target: MARK3 (human) (UniProt P27448)
[5] = biological target: CSNK1D (human) (UniProt P48730)
[6] = biological target: MAPK14 (human) (UniProt Q16539)
[7] = biological target: PDGFRA (human) (UniProt P16234)
[8] = system: FGFR2 (human), P21802 [N549H]
[9] = biological target: ABL1 (human) (UniProt P00519)
[10] = biological target: MAPK13 (human) (UniProt O15264)
Sequence of MAPK13 (human) (O15264 whole entry, looked up): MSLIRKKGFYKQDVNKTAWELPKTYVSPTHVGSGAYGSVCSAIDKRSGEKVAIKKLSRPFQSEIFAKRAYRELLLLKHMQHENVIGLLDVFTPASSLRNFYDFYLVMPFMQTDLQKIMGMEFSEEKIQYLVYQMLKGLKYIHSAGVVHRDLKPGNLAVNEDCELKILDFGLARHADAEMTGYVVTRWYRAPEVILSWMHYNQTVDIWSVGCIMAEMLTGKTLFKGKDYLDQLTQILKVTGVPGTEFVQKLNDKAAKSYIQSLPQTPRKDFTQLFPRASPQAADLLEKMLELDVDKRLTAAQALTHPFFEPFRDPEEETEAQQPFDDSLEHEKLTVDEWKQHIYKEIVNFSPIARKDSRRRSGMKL

[11] = biological target: PRKACA (human) (UniProt P17612)
[12] = biological target: AURKC (human) (UniProt Q9UQB9)
Sequence of AURKC (human) (Q9UQB9 whole entry, looked up): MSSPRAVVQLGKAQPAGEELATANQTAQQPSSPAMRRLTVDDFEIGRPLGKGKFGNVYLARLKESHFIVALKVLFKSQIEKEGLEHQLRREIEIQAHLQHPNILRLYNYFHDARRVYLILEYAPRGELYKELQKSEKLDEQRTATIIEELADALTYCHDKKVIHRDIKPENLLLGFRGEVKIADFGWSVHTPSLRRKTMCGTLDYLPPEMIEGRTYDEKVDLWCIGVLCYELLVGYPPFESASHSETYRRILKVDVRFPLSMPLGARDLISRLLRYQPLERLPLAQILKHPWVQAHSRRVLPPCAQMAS

[13] = biological target: BRSK1 (human) (UniProt Q8TDC3)
Sequence of BRSK1 (human) (Q8TDC3 whole entry, looked up): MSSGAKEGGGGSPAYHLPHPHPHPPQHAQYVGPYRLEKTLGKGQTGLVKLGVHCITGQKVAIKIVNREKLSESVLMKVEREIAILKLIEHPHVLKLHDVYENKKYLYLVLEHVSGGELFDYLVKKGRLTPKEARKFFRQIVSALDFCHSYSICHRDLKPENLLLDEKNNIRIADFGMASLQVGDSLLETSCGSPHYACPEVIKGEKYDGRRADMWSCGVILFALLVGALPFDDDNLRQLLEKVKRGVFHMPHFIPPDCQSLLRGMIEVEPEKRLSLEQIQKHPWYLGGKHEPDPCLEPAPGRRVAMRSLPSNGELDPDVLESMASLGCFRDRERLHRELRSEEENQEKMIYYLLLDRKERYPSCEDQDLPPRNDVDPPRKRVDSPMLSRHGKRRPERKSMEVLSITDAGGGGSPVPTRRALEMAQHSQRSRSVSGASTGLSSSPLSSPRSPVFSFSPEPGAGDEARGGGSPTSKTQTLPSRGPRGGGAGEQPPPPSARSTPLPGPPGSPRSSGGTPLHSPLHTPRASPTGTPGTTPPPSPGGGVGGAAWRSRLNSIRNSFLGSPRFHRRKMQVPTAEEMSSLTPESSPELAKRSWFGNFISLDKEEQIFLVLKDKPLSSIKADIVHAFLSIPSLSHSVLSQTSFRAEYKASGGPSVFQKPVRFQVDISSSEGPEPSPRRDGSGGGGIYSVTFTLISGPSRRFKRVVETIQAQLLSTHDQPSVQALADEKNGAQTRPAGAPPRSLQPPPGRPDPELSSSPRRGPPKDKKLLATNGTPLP

[14] = biological target: RPS6KA5 KD1 KD2 (human) (UniProt O75582)
[15] = biological target: PRKCZ (human) (UniProt Q05513)
[16] = biological target: MAP4K4 (human) (UniProt O95819)
[17] = biological target: PRKCH (human) (UniProt P24723)
[18] = biological target: IGF1R (human) (UniProt P08069)
[19] = biological target: BRSK2 (human) (UniProt Q8IWQ3)
[20] = biological target: RPS6KB1 (human) (UniProt P23443)
[21] = biological target: PIM2 (human) (UniProt Q9P1W9)
[22] = biological target: PRKCQ (human) (UniProt Q04759)
[23] = biological target: MARK2 (human) (UniProt Q7KZI7)
[24] = biological target: CSNK1A1 (human) (UniProt P48729)
[25] = biological target: BTK (human) (UniProt Q06187)
[26] = biological target: TSSK2 (human) (UniProt Q96PF2)
[27] = system: ABL1 (human), P00519 [T315I]
[28] = biological target: FLT3 (human) (UniProt P36888)
[29] = biological target: SGK3 (human) (UniProt Q96BR1)
Sequence of SGK3 (human) (Q96BR1 whole entry, looked up): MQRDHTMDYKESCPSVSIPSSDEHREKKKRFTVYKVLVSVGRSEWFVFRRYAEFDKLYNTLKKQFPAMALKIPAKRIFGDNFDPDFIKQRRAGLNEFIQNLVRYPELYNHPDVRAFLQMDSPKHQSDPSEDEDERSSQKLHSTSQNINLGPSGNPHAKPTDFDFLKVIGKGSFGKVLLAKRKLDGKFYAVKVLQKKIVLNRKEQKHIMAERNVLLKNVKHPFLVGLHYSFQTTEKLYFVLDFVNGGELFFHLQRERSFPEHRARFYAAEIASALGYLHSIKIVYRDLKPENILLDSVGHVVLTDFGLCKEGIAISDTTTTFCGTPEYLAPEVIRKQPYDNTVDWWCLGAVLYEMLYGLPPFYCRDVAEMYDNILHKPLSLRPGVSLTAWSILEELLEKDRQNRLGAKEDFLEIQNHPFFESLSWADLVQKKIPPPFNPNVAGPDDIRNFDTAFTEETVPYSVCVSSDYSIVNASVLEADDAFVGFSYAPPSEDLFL

[30] = biological target: MAPK11 (human) (UniProt Q15759)
[31] = biological target: RPS6KA4 KD1 KD2 (human) (UniProt O75676)
Sequence of RPS6KA4 KD1 KD2 (human) (O75676 whole entry, looked up): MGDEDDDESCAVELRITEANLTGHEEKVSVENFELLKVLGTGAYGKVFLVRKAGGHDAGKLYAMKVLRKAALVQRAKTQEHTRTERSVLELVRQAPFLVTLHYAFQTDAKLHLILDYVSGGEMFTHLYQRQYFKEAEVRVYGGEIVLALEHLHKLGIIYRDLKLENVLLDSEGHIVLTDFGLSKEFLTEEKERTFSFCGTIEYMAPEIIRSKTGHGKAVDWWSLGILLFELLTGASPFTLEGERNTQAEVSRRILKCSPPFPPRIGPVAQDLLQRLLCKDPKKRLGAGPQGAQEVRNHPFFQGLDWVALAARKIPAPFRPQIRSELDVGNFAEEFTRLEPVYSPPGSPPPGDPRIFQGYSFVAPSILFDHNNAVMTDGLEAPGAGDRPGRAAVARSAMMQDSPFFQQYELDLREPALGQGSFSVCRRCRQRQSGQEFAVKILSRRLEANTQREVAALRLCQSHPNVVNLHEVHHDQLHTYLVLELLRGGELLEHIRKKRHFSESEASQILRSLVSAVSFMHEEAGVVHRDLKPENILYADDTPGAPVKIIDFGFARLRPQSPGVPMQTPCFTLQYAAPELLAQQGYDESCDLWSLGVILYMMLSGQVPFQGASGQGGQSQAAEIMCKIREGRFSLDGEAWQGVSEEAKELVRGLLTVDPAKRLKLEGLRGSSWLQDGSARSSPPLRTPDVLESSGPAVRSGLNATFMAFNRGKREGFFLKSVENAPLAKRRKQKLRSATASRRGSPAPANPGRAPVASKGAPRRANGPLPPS

[32] = biological target: MAPKAPK5 (human) (UniProt Q8IW41)
Sequence of MAPKAPK5 (human) (Q8IW41 whole entry, looked up): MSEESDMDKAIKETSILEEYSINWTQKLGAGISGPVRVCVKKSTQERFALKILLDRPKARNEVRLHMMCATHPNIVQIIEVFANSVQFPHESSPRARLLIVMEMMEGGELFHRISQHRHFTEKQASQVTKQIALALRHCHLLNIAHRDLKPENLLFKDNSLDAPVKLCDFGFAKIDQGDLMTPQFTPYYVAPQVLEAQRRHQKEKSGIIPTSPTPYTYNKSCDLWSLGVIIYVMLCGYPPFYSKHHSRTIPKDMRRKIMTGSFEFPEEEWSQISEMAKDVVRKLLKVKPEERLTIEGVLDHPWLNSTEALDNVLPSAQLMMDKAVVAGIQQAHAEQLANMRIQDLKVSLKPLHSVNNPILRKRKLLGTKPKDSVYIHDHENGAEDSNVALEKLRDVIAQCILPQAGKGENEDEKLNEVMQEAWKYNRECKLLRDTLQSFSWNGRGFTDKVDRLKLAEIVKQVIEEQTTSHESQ

[33] = biological target: KDR (human) (UniProt P35968)

Sequence of MAPK14 (human) (Q16539 whole entry, looked up): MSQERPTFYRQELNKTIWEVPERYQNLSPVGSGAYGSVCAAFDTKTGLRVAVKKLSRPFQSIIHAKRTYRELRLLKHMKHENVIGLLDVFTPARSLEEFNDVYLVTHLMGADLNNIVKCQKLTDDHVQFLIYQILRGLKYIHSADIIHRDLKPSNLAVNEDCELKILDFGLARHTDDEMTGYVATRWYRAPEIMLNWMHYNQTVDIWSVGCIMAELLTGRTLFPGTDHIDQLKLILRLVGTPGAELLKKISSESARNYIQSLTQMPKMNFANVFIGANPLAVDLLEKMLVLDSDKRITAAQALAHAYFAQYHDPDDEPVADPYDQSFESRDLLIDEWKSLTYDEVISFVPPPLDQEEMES
Sequence of CSNK1D (human) (P48730 whole entry, looked up): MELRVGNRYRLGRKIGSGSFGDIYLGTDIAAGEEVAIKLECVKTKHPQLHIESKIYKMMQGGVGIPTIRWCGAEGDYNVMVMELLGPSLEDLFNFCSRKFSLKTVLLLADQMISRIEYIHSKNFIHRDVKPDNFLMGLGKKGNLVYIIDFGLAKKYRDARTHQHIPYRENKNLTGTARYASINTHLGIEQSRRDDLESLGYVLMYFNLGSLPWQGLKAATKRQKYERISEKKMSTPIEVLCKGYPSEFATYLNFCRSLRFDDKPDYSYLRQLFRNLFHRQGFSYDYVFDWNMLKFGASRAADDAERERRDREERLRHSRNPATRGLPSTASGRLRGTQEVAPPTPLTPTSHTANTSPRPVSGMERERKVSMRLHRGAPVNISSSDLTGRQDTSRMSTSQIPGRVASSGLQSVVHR
Sequence of DCLK2 (human) (Q8N568 whole entry, looked up): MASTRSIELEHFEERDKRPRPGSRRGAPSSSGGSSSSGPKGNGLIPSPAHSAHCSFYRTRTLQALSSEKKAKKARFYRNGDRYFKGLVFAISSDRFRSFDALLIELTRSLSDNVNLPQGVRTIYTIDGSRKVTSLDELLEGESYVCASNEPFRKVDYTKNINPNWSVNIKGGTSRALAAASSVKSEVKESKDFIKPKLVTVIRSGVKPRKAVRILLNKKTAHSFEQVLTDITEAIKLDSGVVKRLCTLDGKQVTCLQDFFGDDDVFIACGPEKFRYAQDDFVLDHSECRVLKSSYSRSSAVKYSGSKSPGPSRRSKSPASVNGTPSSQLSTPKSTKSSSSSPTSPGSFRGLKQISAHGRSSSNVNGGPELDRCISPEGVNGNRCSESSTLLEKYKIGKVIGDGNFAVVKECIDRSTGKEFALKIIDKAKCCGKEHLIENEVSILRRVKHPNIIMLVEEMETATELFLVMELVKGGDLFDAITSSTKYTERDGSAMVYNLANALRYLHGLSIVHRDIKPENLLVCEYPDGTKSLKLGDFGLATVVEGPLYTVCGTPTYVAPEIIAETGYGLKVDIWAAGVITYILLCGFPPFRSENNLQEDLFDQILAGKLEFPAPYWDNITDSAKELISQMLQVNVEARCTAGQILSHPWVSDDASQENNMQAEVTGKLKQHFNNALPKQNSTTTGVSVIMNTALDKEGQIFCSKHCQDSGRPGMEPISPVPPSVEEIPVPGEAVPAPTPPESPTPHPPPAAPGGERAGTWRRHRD

Compound: O=C(CCc1ccc2ccc3ncc(C4CCNCC4)cc3c(=O)c2c1)NCc1ccccn1
- inhibition ([1]; compound 0.1 µM): -3%
- inhibition ([1]; compound 1.0 µM): -3.3%
- inhibition ([2]; compound 0.1 µM): 2%
- inhibition ([2]; compound 1.0 µM): 5.8%
- inhibition ([3]; compound 0.1 µM): -5.4%
- inhibition ([3]; compound 1.0 µM): -1.3%
- inhibition ([4]; compound 0.1 µM): 0.7%
- inhibition ([4]; compound 1.0 µM): -4.4%
- inhibition ([5]; compound 0.1 µM): -7.1%
- inhibition ([5]; compound 1.0 µM): -2.9%
- inhibition ([6]; compound 0.1 µM): -10.6%
- inhibition ([6]; compound 1.0 µM): 5.1%
- inhibition ([7]; compound 0.1 µM): 1.5%
- inhibition ([7]; compound 1.0 µM): 3.9%
- inhibition ([8]; compound 0.1 µM): -8.4%
- inhibition ([8]; compound 1.0 µM): 0.9%
- inhibition ([9]; compound 0.1 µM): -1%
- inhibition ([9]; compound 1.0 µM): 1.6%
- inhibition ([10]; compound 0.1 µM): -1.8%
- inhibition ([10]; compound 1.0 µM): 3.9%
- inhibition ([11]; compound 0.1 µM): 2.5%
- inhibition ([11]; compound 1.0 µM): 4.8%
- inhibition ([12]; compound 0.1 µM): 7.5%
- inhibition ([12]; compound 1.0 µM): 18.6%
- inhibition ([13]; compound 0.1 µM): -1.6%
- inhibition ([13]; compound 1.0 µM): 1.6%
- inhibition ([14]; compound 0.1 µM): -5.3%
- inhibition ([14]; compound 1.0 µM): -0.9%
- inhibition ([15]; compound 0.1 µM): 0.7%
- inhibition ([15]; compound 1.0 µM): 1.2%
- inhibition ([16]; compound 0.1 µM): 5%
- inhibition ([16]; compound 1.0 µM): -0.2%
- inhibition ([17]; compound 0.1 µM): 7.2%
- inhibition ([17]; compound 1.0 µM): -8.7%
- inhibition ([18]; compound 0.1 µM): -3%
- inhibition ([18]; compound 1.0 µM): 1.3%
- inhibition ([19]; compound 0.1 µM): 3.4%
- inhibition ([19]; compound 1.0 µM): -3.3%
- inhibition ([20]; compound 0.1 µM): 10.9%
- inhibition ([20]; compound 1.0 µM): -3.3%
- inhibition ([21]; compound 0.1 µM): -0.1%
- inhibition ([21]; compound 1.0 µM): -3.2%
- inhibition ([22]; compound 0.1 µM): 3.3%
- inhibition ([22]; compound 1.0 µM): 0.5%
- inhibition ([23]; compound 0.1 µM): -4.6%
- inhibition ([23]; compound 1.0 µM): -1.8%
- inhibition ([24]; compound 0.1 µM): 5%
- inhibition ([24]; compound 1.0 µM): -0.6%
- inhibition ([25]; compound 0.1 µM): 2.1%
- inhibition ([25]; compound 1.0 µM): 1.1%
- inhibition ([26]; compound 0.1 µM): -2.3%
- inhibition ([26]; compound 1.0 µM): 1.3%
- inhibition ([27]; compound 0.1 µM): 2.7%
- inhibition ([27]; compound 1.0 µM): 1.3%
- inhibition ([28]; compound 0.1 µM): -5.8%
- inhibition ([28]; compound 1.0 µM): -4%
- inhibition ([29]; compound 0.1 µM): 9%
- inhibition ([29]; compound 1.0 µM): 1%
- inhibition ([30]; compound 0.1 µM): 0.6%
- inhibition ([30]; compound 1.0 µM): -1%
- inhibition ([31]; compound 0.1 µM): -5.8%
- inhibition ([31]; compound 1.0 µM): 1%
- inhibition ([32]; compound 0.1 µM): -4.3%
- inhibition ([32]; compound 1.0 µM): 2.9%
- inhibition ([33]; compound 0.1 µM): 4.9%
- inhibition ([33]; compound 1.0 µM): 16.8%

Compound: Cn1cc(-c2cnc3ccc4ccc(CS(N)(=O)=O)cc4c(=O)c3c2)cn1
- inhibition ([1]; compound 0.1 µM): 21.1%
- inhibition ([1]; compound 1.0 µM): 19.6%
- inhibition ([2]; compound 0.1 µM): 1.7%
- inhibition ([2]; compound 1.0 µM): 8.4%
- inhibition ([3]; compound 0.1 µM): 16.5%
- inhibition ([3]; compound 1.0 µM): 81.8%
- inhibition ([4]; compound 0.1 µM): -2.4%
- inhibition ([4]; compound 1.0 µM): -3.3%
- inhibition ([5]; compound 0.1 µM): 7.6%
- inhibition ([5]; compound 1.0 µM): 11.1%
- inhibition ([6]; compound 0.1 µM): -13.9%
- inhibition ([6]; compound 1.0 µM): 6.9%
- inhibition ([7]; compound 0.1 µM): -19.1%
- inhibition ([7]; compound 1.0 µM): 15.5%
- inhibition ([8]; compound 0.1 µM): 15.5%
- inhibition ([8]; compound 1.0 µM): 40.5%
- inhibition ([9]; compound 0.1 µM): 6.9%
- inhibition ([9]; compound 1.0 µM): 22.9%
- inhibition ([10]; compound 0.1 µM): -3.2%
- inhibition ([10]; compound 1.0 µM): -9.3%
- inhibition ([11]; compound 0.1 µM): -5.5%
- inhibition ([11]; compound 1.0 µM): -1.1%
- inhibition ([12]; compound 0.1 µM): 27.7%
- inhibition ([12]; compound 1.0 µM): 76.2%
- inhibition ([13]; compound 0.1 µM): 5.6%
- inhibition ([13]; compound 1.0 µM): 12.5%
- inhibition ([14]; compound 0.1 µM): 8%
- inhibition ([14]; compound 1.0 µM): 4.1%
- inhibition ([15]; compound 0.1 µM): -6.7%
- inhibition ([15]; compound 1.0 µM): 1%
- inhibition ([16]; compound 0.1 µM): 7.1%
- inhibition ([16]; compound 1.0 µM): 1.8%
- inhibition ([17]; compound 0.1 µM): -6.7%
- inhibition ([17]; compound 1.0 µM): 0.2%
- inhibition ([18]; compound 0.1 µM): -3.7%
- inhibition ([18]; compound 1.0 µM): 1.8%
- inhibition ([20]; compound 0.1 µM): 10%
- inhibition ([20]; compound 1.0 µM): 13.5%
- inhibition ([21]; compound 0.1 µM): 15.4%
- inhibition ([21]; compound 1.0 µM): 16.5%
- inhibition ([22]; compound 0.1 µM): 5.2%
- inhibition ([24]; compound 0.1 µM): -2.8%
- inhibition ([24]; compound 1.0 µM): -4.1%
- inhibition ([26]; compound 0.1 µM): -37%
- inhibition ([26]; compound 1.0 µM): 10.5%
- inhibition ([27]; compound 0.1 µM): 1.4%
- inhibition ([27]; compound 1.0 µM): 12.7%
- inhibition ([28]; compound 0.1 µM): 4.2%
- inhibition ([28]; compound 1.0 µM): 48.8%
- inhibition ([29]; compound 0.1 µM): -1.4%
- inhibition ([29]; compound 1.0 µM): 3.9%
- inhibition ([30]; compound 0.1 µM): -1.8%
- inhibition ([30]; compound 1.0 µM): -4.1%
- inhibition ([31]; compound 0.1 µM): 15.2%
- inhibition ([32]; compound 0.1 µM): 1.3%
- inhibition ([32]; compound 1.0 µM): -7.9%
- inhibition ([33]; compound 0.1 µM): 32.6%
- inhibition ([33]; compound 1.0 µM): 64%

Source: the kinase profiling compilation of Christmann-Franck et al. (2016)
